Tested on: SK-MEL-28
Test: Cytotoxicity against human SK-MEL-28 cells after 48 hrs by sulforhodamine B assay
Assay type: functional
Details: SK-MEL-28, 48 h

## O=C(Nc1nonc1-c1ccc(Cl)cc1)c1ccc(C(F)(F)F)cc1
read-out: GI50
  GI50: 4.25 µM
read-out: LC50
  LC50: > 100 µM
read-out: TGI
  TGI: > 100 µM
read-out: pGI50 (converted)
  GI50: 4.27 µM
read-out: pLC50 (converted)
  LC50: > 100 µM
read-out: pTGI
  TGI: > 100 µM
